From patent publication US10716778B2, “Use of compounds that are able to increase the serum IGF-1 level for the preparation of a therapeutical composition for treatment of various disease states associated with a reduced IGF-1 serum level in humans and animals” (VEIJLEN N.V., priority 2003, dated 2020)
Values joined by “and” are separate entries in the source; they are usually repeats but may differ in a detail not shown here. Identical values can stand only once.

Tests used:
[1] = test system: IGF-BP3; test: Plasma IGF-BP3 level in eight CFS patients treated with the composition (Example 1); format: in vivo, human
Experimental: Eight patients suffering from severe chronic fatigue syndrome (CFS) were studied over a 5- to 7-month period. In this period, they were treated with a therapeutical composition of the disclosure in the form of a food supplement, which comprised IAA as the active ingredient. All subjects were unable to do their job or to perform very light physical exercise.
Before entering the study, the subjects underwent a careful medical examination to exclude any other disease. Blood was assayed for insulin-like growth factor 1 (IGF-1) and its major binding protein IGF-BP3 was sampled at 0, 1, 3 and 5 to 7 months of treatment because the total amount of IGF-1 in serum minus the amount of IGF-BP3 is the amount of free IGF-1. Free IGF-1 is the active serum fraction. Also at 0, 1, 3 and 5 to 7 months, job participation and physical activities were registered and calculated as percentage of normal, before disease pattern.
Eight women varying in age from 25 to 53 years having severe complaints of fatigue that made it impossible to function normally, both at work and in free time. All reported an excessive need for sleep, which was never refreshing even though it was prolonged (more than 12 hours). After excluding all other diseases and infections, they were all diagnosed for CFS.
Blood samples of 20 ml were taken and liver and kidney functions, the red and white hemogram, IGF-1 and IGF-BP3 determined. The patients took 1000 mg/day (corresponding to 40 mg IAA and 960 mg salt and WPC 70) of the composition of the disclosure for 4 weeks. After this, the dosage was reduced by 250 mg (corresponding to 10 mg IAA) every 2 weeks to 750 mg/day, 500 mg/day 250 mg/day, respectively. […]
At the start of the study and at each check-up point, the work participation and physical activity pattern were scored on a scale from 1 to 10 and plotted as the percentage of the patient's normal activities. […] IGF-BP3 was determined by means of an immunoassay (DSL-5600 ACTIVE™, DSL Deutschland GmbH, Germany) having an intra-assay variance of 4.4% and an inter-assay variance of 6.6%. […]

[2] = test system: HbA1c; test: HbA1c in type 2 diabetic patients during medication with IAA (Example 4); format: in vivo, human; settings: for HbA1c: acetic acid
Excerpt: Five male type 2 diabetic patients took part in the study. They were all very difficult to regulate. When the study started, the average HbA1c was to be approximately 9.0%. The patients had no other clinical problems. In addition, the IgF-BP3/IgF-1 ratio had to be over 10. The age of the subjects were between 45 years and 75 years with an average of 58. The period of the investigation was 6 months. At the start of the study, after 2 month, 4 months and at the end at 6 months, blood was taken. The following parameters were checked: IGF-1 and IGF-PB-3. Also, at the start, safety parameters (liver tests, hematology) were determined. Every 8 weeks, HbA1c was determined.
All samples from one subject were analyzed in the same run to avoid intra-assay variability. Quantification of IGF-1 was performed using an immunoradiometric assay (IRMA) (DSL-5600 ACTIVE™, DSL, Germany GmbH, Germany). Intra- and inter-assay variance was: 4.0% and 9.2% and 1.5% for IGF-1. The Hba1c was analyzed on HPLC Menarine HA 81-60.
The total work output of every subject was calculated with a 2-way ANOVA for repeated measures and the hormone values were analyzed with the Wilcoxon test. In all cases, a p value of <0.05 was accepted as significant.

[3] = test system: athletes; test: Performance and recovery of athletes (Example 6); format: in vivo, human; settings: group that received IAA; 12 weeks intensive training; placebo performances decreased
Experimental: Twenty athletes entered the study. Other medication was excluded from the research. The period of the treatment was 12 weeks. They were not allowed to take any other medication or food supplements. They continued their level of training. After 2 weeks, the training was intensified by 25%. At baseline, at the start, after 2 weeks, 4 weeks, 6 weeks, 8 weeks, 10 weeks and 12 weeks, IGF-1 and safety parameters (liver tests, hematology) were determined. The group was divided into two groups of ten athletes. Group A received IAA; group B got a placebo.
The following schedule was used for the supplements. 1 IAA capsule contained 10 mg IAA, 100 mg NaCl, 140 mg WPC 70. One Glutamine capsule contained 500 mg glutamine. The amino acids that were taken are as described in Table 1.

[4] = test system: growing laying hens; test: Weight and weight gain of growing laying hens treated with IAA (Example 8); format: in vivo; set-up: unit not given here
Experimental: Growing laying hens of 10 weeks old were selected in the flock to create four groups of ten hens: • Group GB: Ten normally growing hens, not treated • Group GNA: Ten normally growing hens, treated with 10 mg/kg/LW IAA (LW=live weight) • Group SB: Ten poorly growing hens, not treated • Group SNA: 10 poorly growing hens, treated with 10 mg/kg/LW IAA.
In this example, not only the poor-growing birds were treated, but also normally growing animals. The birds receive daily forced oral treatment with a capsule that contains IAA. The different groups are weighed every week. Treatment is continued at least until the hens start laying, to see if the period of onset of laying is influenced by the treatment.

indole acetic acid [IAA]
IGF-BP3 level (mean±SD) ([1]; after 1 month of treatment): 18.1 ± 3.5 nmol/L | IGF-BP3 level (mean±SD) ([1]; after 5 months of treatment): 13.4 ± 10.6 nmol/L | IGF-BP3 level (mean±SD) ([1]; before treatment (baseline)): 25 ± 11.5 nmol/L | HbA1c, average ([2]; Week 0 (start), average of 5 subjects): 9.0% | HbA1c ([2]; Week 0 (start), individual subjects): 9.6% and 9.0% and 9.1% and 8.6% and 8.8% | HbA1c, average ([2]; Week 8, average of 5 subjects): 8.3% | HbA1c ([2]; Week 8, individual subjects): 8.9% and 8.2% and 8.3% (2×) and 7.6% | HbA1c, average ([2]; Week 16, average of 5 subjects): 7.4% | HbA1c ([2]; Week 16, individual subjects): 8.0% and 7.1% and 7.4% and 6.9% and 7.6% | HbA1c, average ([2]; Week 24, average of 5 subjects): 6.7% | HbA1c ([2]; Week 24, individual subjects): 7.4% and 6.4% and 6.6% and 6.3% and 6.8% | performance of athletes at the end [3]: performed better | weight ([4]; group GNA (normally growing hens, 10 mg/kg/LW IAA daily oral capsule), weekly weighing 1): 740 | total weight gain ([4]; group GNA, untreated GB 407.5): 482 | weight ([4]; group GNA, weekly weighing 2): 883 | weight ([4]; group GNA, weekly weighing 3): 996 | weight ([4]; group GNA, weekly weighing 4): 1095 | weight ([4]; group GNA, weekly weighing 5): 1222 | weight gain ([4]; group GNA, weighing 2 vs 1): 143 | weight gain ([4]; group GNA, weighing 3 vs 2): 113 | weight gain ([4]; group GNA, weighing 4 vs 3): 99 | weight gain ([4]; group GNA, weighing 5 vs 4): 127 | weight ([4]; group SNA (poorly growing hens, 10 mg/kg/LW IAA daily oral capsule), weekly weighing 1): 489.5 | total weight gain ([4]; group SNA, untreated SB 408.5): 505.5 | weight ([4]; group SNA, weekly weighing 2): 598 | weight ([4]; group SNA, weekly weighing 3): 718 | weight ([4]; group SNA, weekly weighing 4): 885 | weight ([4]; group SNA, weekly weighing 5): 995 | weight gain ([4]; group SNA, weighing 2 vs 1): 108.5 | weight gain ([4]; group SNA, weighing 3 vs 2): 120 | weight gain ([4]; group SNA, weighing 4 vs 3): 167 | weight gain ([4]; group SNA, weighing 5 vs 4): 110
